Source: patent publication US9402820B2, “Use of pyruvate or succinate to enhance the efficacy of a hypoxia activated prodrug for the treatment of tumors” (THE UNITED STATES OF AMERICA AS REPRESENTED BY THE …, priority 2011, dated 2016)

Tests used:
[1] = test system: SCCVII (mouse squamous cell carcinoma) tumors; assay: SCCVII tumor growth with TH-302 alone, pyruvate alone or in combination; assay type: in vivo; conditions: daily for 3 days
Procedure: (§1) Mouse legs bearing tumors were prepared by subcutaneously injecting 5×10^5 SCCVII (mouse squamous cell carcinoma) cells or 1×10^6 HT29 (human colon cancer) cells to the hind leg of C3H or athymic nude mice, respectively. When tumor size became 400-500 mm^3, treatments were initiated. Mice were treated daily for 3 days with hypoxia-activated prodrug TH-302 (100 mg/kg/day, i.p.) alone, pyruvate (1.15 mmol/kg/day, i.v.) alone, or TH-302 injection 30 min. after pyruvate injection. Treatments were started on day 7 (SCCVII; FIG. 6A) or day 8 (HT29; FIG. 6B). […] Tumor growth (volume/size in mm^3) was measured daily by caliper.

[2] = test system: HT29 (human colon cancer) tumors; assay: HT29 tumor growth with TH-302 alone or in combination with pyruvate; assay type: in vivo; conditions: TH-302 100 mg/kg/day i.p., pyruvate 1.15 mmol/kg/day i.v. 30 min before, daily for 3 days
Procedure: as §1

SCCVII solid tumors [3] = assay: Immunohistochemical analysis with hypoxia marker pimonidazole in SCC tumors; assay type: in vivo, mouse; conditions: control mice 21.1±1.4, n=5
Procedure: A hypoxia marker, pimonidazole, was given to tumor-bearing mice intravenously 30 minutes before excising tumors. The mice were euthanized, and tumor tissues were removed from mice. The tumor tissues were fixed with 4% paraformaldehyde and frozen using ultracold ethanol. The frozen tumors were sectioned to 10 μm thick using a cryostat, and the sections were thaw-mounted on glass slides. After blocking non-specific binding sites with Protein Block Serum-Free reagent (Dako North America Inc., Carpinteria, Calif.), the slides were covered by rabbit anti-pimonidazole antisera (Natural Pharmacia International, Inc., Burlington, Mass.; 1:250) overnight at 4° C. The sections were incubated with Alexa Fluor 555 anti-rabbit secondary antibody (Invitrogen, Carlsbad, Calif.; 1:500). Then they were mounted on Prolong Gold antifade reagent with DAPI (Invitrogen). Fluorescence microscopic observation was performed using an Axiovert 200 inverted fluorescent microscope (Carl Zeiss), and images of tissues were captured using Image-Pro Plus Ver. 4.0 imaging software. The pimonidazole positive area was quantified using Image J software.

SCCVII solid tumors [4] = assay: EPR imaging (EPRI) of tumor pO2 after i.v. pyruvate in SCC tumor-bearing mice; assay type: in vivo, mouse; conditions: for Median tumor pO2 value: before injection 11.8±1.3; for Percentage of hypoxic region (pO2<10 mmHg) in the tumors: before injection 39.7±9.8
Procedure: All animal experiments were carried out in compliance with the Guide for the care and use of laboratory animal resources (National Research Council, 1996) and approved by the National Cancer Institute Animal Care and Use Committee. Female C3H/Hen mice were supplied by the Frederick Cancer Research Center, Animal Production (Frederick, Md.). SCCVII solid tumors were formed by injecting 5×10^5 SCC cells subcutaneously into the right hind leg of C3H mice. Body weight measured before the experiments was 21-27 g. In EPRI and MRI measurements, mice were anesthetized by isoflurane (4% for induction and 2% for maintaining anesthesia) in medical air (750 mL/min) and positioned prone with their tumor-bearing legs placed inside the resonator. During the measurements, the breathing rate of the mice was monitored with a pressure transducer (SA Instruments Inc.) and maintained at 60±10 breaths per minute. Core body temperature was also monitored with a non-magnetic rectal temperature probe (FISO) and maintained at 37±1° C. with a flow of warm air. For administration of TAM and [1-^13C]pyruvate solution, a 30-gauge needle was cannulated into the tail vein and extended using polyethylene tubing (PE-10).
Technical details of the EPR scanner operating at 300 MHz, data acquisition based on the single-point imaging (SPI) modality, image reconstruction, and the oxygen mapping procedure were described previously (Matsumoto et al., Magn Reson Med, 55:1157-1163, 2006; and Matsumoto et al., J Clin Invest, 118:1965-1973, 2008). Isotonic [1-^13C]pyruvate solution (pH 7.4) was prepared by dissolving 30 μL of [1-^13C]pyruvic acid in 4.5 mL of alkaline solution containing 100 mg/L EDTA. After the mouse was placed in the resonator, TAM (OX063, GE Healthcare) was injected intravenously through the cannula placed in the tail vein. TAM was given as a 1.125 mmol/kg bolus followed by 0.04 mmol/kg/min continuous injection. After acquiring the first EPR data set, 1.15 mmol/kg bolus (300 μL of 96 mM) [1-^13C]pyruvate solution was injected intravenously through the cannula. EPRI measurements were carried out 30 minutes and 1 hour after [1-^13C]pyruvate injection. Then, the mouse was released. The mouse was anesthetized and canulated again, 1.125 mmol/kg TAM was injected to the mouse, and EPRI measurement was carried out 5 hours after the [1-^13C]pyruvate injection.
EPR signals were collected following the RF excitation pulses (60 ns, 80 W, 70° flip angle) using an analog digital converter (200 Msamples/s). EPR measurements were started 3 minutes after TAM injection, and it took 9 minutes to obtain a data set for a 3D image. The repetition time (TR) was 6.0 μs. The FIDs (free induction decays) were collected under a nested looping of the x, y, z gradients and each time point in the FID underwent phase modulation enabling 3D spatial encoding. In order to get reproducible values of T2* and to retain a more or less uniform image resolution, a set of 3 gradients was used, and data for corresponding images were collected in an interleaved fashion (Matsumoto et al., Magn Reson Med, 55:1157-1163, 2006). If the power spectrum of the pulse is uniform throughout the k-space for all the gradients used, the spatial resolution is simply defined by FOV (field of view) and the number of k-samples (elements in k-space).
Anatomical images of the tumor-bearing leg were obtained using 7 T MRI after the EPRI measurements. […] An identical parallel coil resonator (17 mm inner diameter and 25 mm long) with Q switch was used for both EPRI and MRI operating at 300 MHz (Matsumoto et al., J Clin Invest, 118:1965-1973, 2008).
MRI scans were conducted using a 7 T scanner controlled with ParaVision 5.0 (Bruker BioSpin MRI GmbH). […]

SCC tumor = assay: Tumor growth after X-irradiation (12 Gy) with [1-13C]pyruvate injection; assay type: in vivo, mouse; conditions: X-irradiation 12 Gy 30 minutes after [1-13C]pyruvate injection; X-irradiation without pyruvate 6-7 days
Excerpt: Mice were fixed in the specially designed jig for X-irradiation, by which mice were restricted from moving without anesthesia. X-irradiation (12 Gy) was delivered to tumor-bearing leg 6 days after SCC tumor implantation using a XRAD-320 (Precision X-ray Inc.).
Hypoxia is a critical factor that determines tumor resistance to radiotherapy and some kinds of chemotherapy. Although the pyruvate-induced hypoxia is transient, the decrease in oxygen concentration may limit the efficacy of cancer therapy, if the cancer treatments are provided immediately after MRI with hyperpolarized [1-^13C]pyruvate. To elucidate the effect of exogenously injected pyruvate on radiotherapy, tumor growth was monitored after X-irradiation with and without [1-^13C]pyruvate injection (FIG. 4). X-irradiation (12 Gy) without pyruvate administration suppressed the tumor growth for 6-7 days compared with non-treated control group which received neither X-irradiation nor pyruvate administration. […] Secondary mechanisms such as activation of hypoxia inducible transcription factor-1 signaling during the pyruvate-induced transient hypoxia might partially contribute to the long lasting effect of pyruvate on radiotherapy in addition to the direct effect of oxygen concentration at the time of radiation. […]

[5] = SCCVII, TH-302 100 mg/kg/day i.p., pyruvate 1.15 mmol/kg/day i.v. 30 min before

SMILES	Period of time until tumor becomes 2 times original tumor size [1, 5]	Period of time until tumor becomes 3 times original tumor size [1, 5]	effect on SCCVII tumor growth ([1]; treatment starting 7 days post-tumor implantation)	Period of time until tumor becomes 3 times original tumor size [2]	Period of time until tumor becomes 4 times original tumor size [2]	Pimonidazole positive area in tumors (SCCVII solid tumors [3]; 1 hour after [1-13C]pyruvate injection)	Pimonidazole positive area in tumors (SCCVII solid tumors [3]; 5 hours after [1-13C]pyruvate injection)	median pO2 value in tumor (SCCVII solid tumors [4]; 1-2 hours after hyperpolarized [1-13C]pyruvate 1.15 mmol/kg i.v. bolus, control tumor group 11.7±0.7, mean±SEM, n=4)	hypoxic fraction (pixels with pO2<10 mm Hg) (SCCVII solid tumors [4]; 1-2 hours after hyperpolarized [1-13C]pyruvate 1.15 mmol/kg i.v., control tumors 37.1±5.6, mean±SEM, n=4)	Median tumor pO2 value (SCCVII solid tumors [4]; 30 minutes after [1-13C]pyruvate 1.15 mmol/kg i.v., n=4)	decrease of tumor pO2 (SCCVII solid tumors [4]; 30 minutes after half dose (0.58 mmol/kg b. w.))	Percentage of hypoxic region (pO2<10 mmHg) in the tumors (SCCVII solid tumors [4]; 30 minutes after pyruvate 1.15 mmol/kg i.v.)	Median tumor pO2 value (SCCVII solid tumors [4]; 1 hour after [1-13C]pyruvate 1.15 mmol/kg i.v., n=4)	Percentage of hypoxic region (pO2<10 mmHg) in the tumors (SCCVII solid tumors [4]; 1 hour after pyruvate 1.15 mmol/kg i.v.)	Median tumor pO2 value (SCCVII solid tumors [4]; 5 hours after [1-13C]pyruvate 1.15 mmol/kg i.v., n=4)	Percentage of hypoxic region (pO2<10 mmHg) in the tumors (SCCVII solid tumors [4]; 5 hours after pyruvate 1.15 mmol/kg i.v.)	delay in tumor growth (SCC tumor)
Cn1c(COP(=O)(NCCBr)NCCBr)cnc1[N+](=O)[O-] [TH-302]	3.4 days	5.4 days	minor or small effect	6.8 days	8.4 days	–	–	–	–	–	–	–	–	–	–	–	–
CC(=O)C(=O)O [pyruvate, 2-oxopropanoate]	–	–	–	–	–	29.5±2.9%	18.7±1.8%	9.2±1.1 mmHg	58.5±10.2%	5.8±0.6 mmHg	32%	68.5±3.0%	7.7±0.6 mmHg	63.8±2.6%	11.6±1.2 mmHg	43.9±5.7%	3 to 4 days
